pIC50, pKd: −log10 of the molar value.
Legend:
[1] = target: Dual specificity protein kinase CLK4 (Homo sapiens, UniProt Q9HAZ1); assay: biochemical
[2] = target: Casein kinase I isoform epsilon (Homo sapiens, UniProt P49674); assay: biochemical; format: cell-based, Sf9
[3] = target: Dual specificity protein kinase CLK3 (Homo sapiens, UniProt P49761); assay: biochemical; format: cell-based, Sf9
[4] = target: T1, Dual specificity tyrosine-phosphorylation-regulated kinase 2 (Homo sapiens, UniProt Q92630); assay: biochemical; format: cell-based, Sf9
T1 sequence (Q92630 whole entry): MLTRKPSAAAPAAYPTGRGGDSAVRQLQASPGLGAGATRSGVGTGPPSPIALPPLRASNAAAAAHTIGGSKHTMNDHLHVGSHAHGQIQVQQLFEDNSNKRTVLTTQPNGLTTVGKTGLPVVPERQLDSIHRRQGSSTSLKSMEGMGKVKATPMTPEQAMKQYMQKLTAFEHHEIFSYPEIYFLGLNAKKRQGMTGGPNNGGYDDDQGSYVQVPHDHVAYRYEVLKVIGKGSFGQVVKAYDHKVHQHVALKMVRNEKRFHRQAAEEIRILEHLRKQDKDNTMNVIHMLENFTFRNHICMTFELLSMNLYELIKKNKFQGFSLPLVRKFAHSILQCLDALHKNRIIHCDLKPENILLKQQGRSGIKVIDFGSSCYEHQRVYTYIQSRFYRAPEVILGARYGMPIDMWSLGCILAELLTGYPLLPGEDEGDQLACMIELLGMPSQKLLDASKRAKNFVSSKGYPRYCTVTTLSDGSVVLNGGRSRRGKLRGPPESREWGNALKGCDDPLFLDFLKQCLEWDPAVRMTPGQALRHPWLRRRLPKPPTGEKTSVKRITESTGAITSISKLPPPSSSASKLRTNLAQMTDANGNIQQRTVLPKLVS

[5] = target: Cyclin-dependent kinase 5/CDK5 activator 1 (Homo sapiens, UniProt Q00535); assay: biochemical; format: cell-based, Sf9
[6] = in vitro; settings: mouse, ht-22
[7] = target: Dual specificity protein kinase CLK2 (Homo sapiens, UniProt P49760); assay: biochemical
[8] = target: T2, Dual specificity tyrosine-phosphorylation-regulated kinase 4 (Homo sapiens, UniProt Q9NR20); assay: biochemical; format: cell-based, Sf9
T2 sequence (Q9NR20 whole entry): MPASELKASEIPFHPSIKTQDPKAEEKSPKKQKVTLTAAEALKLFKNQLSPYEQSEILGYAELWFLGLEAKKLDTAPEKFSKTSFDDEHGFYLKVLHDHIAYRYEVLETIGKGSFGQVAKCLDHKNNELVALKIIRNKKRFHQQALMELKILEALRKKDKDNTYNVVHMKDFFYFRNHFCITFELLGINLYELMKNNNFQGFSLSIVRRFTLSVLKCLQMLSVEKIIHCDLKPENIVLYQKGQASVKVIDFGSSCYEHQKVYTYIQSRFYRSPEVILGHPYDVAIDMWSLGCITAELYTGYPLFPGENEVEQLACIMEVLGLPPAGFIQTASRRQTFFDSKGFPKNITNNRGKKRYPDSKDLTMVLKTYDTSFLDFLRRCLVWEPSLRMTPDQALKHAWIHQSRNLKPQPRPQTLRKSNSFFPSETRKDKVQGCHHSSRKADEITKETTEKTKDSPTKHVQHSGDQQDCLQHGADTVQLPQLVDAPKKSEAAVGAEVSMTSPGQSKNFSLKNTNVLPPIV

[9] = target: T3, Dual specificity tyrosine-phosphorylation-regulated kinase 3 (Homo sapiens, UniProt O43781); assay: biochemical; format: cell-based, Sf9
T3 sequence (O43781 whole entry): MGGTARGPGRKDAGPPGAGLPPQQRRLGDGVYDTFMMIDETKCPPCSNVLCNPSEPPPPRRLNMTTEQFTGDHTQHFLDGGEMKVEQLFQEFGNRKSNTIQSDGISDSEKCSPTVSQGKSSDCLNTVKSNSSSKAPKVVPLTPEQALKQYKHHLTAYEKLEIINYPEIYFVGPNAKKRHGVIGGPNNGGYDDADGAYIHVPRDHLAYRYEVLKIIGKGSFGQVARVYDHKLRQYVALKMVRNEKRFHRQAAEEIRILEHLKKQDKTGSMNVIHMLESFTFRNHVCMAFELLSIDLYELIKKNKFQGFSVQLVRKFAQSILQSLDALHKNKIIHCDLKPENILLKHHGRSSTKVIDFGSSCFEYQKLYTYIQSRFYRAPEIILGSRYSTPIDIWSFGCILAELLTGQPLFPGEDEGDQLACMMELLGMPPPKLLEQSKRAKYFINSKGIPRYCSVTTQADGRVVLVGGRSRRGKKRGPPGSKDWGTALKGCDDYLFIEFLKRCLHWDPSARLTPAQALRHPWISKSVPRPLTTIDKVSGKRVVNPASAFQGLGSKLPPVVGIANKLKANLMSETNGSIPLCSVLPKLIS

[10] = target: T4, Dual specificity protein kinase CLK1 (Homo sapiens, UniProt P49759)
[11] = target: T4, Dual specificity protein kinase CLK1; assay: biochemical; format: cell-based, Sf9
[12] = target: T4, Dual specificity protein kinase CLK1; assay: biochemical; format: cell-based, Sf9; settings: read-out: IC50
[13] = target: T5, Glycogen synthase kinase-3 beta (Homo sapiens, UniProt P49841); assay: biochemical; format: cell-based, Sf9
[14] = target: T5, Glycogen synthase kinase-3 beta

Sequence of Dual specificity protein kinase CLK4 (Q9HAZ1 whole entry, canonical isoform): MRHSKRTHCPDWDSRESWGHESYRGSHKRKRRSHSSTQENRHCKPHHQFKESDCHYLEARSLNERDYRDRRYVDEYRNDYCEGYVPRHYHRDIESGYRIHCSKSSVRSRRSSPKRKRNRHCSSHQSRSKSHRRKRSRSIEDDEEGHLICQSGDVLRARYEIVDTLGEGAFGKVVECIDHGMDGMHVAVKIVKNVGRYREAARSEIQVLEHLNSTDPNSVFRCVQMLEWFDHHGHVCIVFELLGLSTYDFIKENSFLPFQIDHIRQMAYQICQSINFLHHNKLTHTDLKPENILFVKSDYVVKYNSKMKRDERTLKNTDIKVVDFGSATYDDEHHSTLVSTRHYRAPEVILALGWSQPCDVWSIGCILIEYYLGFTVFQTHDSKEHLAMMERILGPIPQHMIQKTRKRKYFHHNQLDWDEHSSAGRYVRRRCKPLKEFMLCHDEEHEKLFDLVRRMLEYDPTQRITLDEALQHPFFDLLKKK
Sequence of Cyclin-dependent kinase 5/CDK5 activator 1 (Q00535 whole entry): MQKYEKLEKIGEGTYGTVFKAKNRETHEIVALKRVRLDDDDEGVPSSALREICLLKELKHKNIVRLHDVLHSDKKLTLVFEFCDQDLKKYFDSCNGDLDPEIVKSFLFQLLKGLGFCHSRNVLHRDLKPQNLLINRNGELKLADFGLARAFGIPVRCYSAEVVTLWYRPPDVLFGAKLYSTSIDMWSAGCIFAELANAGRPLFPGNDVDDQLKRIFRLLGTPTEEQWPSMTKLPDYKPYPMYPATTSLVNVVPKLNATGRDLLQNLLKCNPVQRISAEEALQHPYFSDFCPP
Sequence of Cyclin-dependent kinase 5/CDK5 activator 1 (Q15078 whole entry, further chain): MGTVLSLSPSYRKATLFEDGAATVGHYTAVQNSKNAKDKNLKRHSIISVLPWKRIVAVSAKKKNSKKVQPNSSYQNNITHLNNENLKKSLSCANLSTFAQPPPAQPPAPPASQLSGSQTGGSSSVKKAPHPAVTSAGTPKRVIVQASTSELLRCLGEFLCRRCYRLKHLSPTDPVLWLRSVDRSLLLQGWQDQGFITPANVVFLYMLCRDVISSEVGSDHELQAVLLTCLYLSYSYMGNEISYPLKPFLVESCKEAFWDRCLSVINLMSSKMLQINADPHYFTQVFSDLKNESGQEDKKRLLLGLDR
T4 sequence (P49759 whole entry): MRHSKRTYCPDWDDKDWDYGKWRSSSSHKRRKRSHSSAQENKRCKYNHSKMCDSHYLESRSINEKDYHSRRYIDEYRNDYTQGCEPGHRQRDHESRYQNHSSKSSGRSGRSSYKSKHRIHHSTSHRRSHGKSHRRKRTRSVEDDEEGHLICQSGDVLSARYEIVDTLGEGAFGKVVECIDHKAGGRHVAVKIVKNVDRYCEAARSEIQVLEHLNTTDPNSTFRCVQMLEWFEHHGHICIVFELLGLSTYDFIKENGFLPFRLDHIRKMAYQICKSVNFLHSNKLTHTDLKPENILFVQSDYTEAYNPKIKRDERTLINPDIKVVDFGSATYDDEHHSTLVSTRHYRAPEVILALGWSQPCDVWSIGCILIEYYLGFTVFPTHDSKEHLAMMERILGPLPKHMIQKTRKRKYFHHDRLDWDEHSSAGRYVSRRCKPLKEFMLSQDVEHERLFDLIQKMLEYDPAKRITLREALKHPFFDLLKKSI
Sequence of Dual specificity protein kinase CLK3 (P49761 whole entry): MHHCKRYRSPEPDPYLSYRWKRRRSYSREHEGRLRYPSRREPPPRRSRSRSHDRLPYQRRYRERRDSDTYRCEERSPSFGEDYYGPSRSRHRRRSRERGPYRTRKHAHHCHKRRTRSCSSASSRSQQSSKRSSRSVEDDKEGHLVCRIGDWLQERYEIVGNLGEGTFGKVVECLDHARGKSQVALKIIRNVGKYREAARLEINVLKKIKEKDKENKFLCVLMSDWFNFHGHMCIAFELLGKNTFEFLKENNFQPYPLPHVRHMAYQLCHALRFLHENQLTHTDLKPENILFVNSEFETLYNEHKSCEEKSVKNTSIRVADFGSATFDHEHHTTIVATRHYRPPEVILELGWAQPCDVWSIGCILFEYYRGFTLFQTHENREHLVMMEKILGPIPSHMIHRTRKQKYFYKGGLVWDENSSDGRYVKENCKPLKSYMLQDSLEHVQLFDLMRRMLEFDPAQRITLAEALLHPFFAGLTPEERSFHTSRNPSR
T5 sequence (P49841 whole entry): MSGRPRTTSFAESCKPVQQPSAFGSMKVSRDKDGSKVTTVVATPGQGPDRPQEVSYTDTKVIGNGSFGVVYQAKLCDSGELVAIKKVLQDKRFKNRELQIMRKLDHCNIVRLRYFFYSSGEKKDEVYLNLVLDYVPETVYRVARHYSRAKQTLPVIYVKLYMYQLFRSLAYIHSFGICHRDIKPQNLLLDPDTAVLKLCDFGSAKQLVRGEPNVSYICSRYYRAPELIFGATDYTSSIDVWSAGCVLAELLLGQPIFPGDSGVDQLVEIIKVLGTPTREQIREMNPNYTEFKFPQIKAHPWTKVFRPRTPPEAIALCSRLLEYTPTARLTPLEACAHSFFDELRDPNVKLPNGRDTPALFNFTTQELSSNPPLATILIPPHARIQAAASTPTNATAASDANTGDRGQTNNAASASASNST
Sequence of Dual specificity protein kinase CLK2 (P49760 whole entry): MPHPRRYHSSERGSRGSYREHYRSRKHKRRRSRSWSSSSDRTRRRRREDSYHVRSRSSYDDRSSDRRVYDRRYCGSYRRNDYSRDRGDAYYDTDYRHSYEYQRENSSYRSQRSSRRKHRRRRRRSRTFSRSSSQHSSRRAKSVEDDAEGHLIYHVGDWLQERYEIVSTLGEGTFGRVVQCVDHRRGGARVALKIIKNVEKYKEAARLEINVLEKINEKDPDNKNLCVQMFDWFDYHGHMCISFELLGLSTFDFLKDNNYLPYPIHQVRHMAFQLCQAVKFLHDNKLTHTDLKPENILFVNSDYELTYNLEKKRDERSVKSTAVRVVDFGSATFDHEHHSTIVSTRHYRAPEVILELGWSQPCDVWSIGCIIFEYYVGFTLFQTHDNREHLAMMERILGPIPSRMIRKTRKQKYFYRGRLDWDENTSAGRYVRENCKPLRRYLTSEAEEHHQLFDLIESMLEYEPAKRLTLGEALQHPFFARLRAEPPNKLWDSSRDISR
Sequence of Casein kinase I isoform epsilon (P49674 whole entry, canonical isoform): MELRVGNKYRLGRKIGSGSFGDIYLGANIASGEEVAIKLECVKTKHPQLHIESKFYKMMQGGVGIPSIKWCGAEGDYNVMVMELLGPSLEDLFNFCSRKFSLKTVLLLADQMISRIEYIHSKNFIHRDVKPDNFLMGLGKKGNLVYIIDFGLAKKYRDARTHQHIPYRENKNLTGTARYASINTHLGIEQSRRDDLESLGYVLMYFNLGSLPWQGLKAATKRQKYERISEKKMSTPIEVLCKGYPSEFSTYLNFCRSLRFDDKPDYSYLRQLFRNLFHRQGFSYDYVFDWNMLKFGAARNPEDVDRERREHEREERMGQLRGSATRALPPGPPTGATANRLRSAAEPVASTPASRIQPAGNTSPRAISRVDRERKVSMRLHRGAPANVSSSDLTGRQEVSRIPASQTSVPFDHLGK

Row | Structure (SMILES) | pIC50 [1] | pIC50 [2] | pIC50 [3] | pIC50 [4] | pIC50 [5] | IC50 at 48 h [6] [nM] | pIC50 [7] | pIC50 [8] | pIC50 [9] | pKd [10] | pIC50 [11] | pIC50 [12] | pIC50 [13] | pKd [14]
1 | Cc1nc2ccc(-c3cc(N)nc(N)c3)nc2n1CC(F)(F)F | 7.79 | 5.75 | 5.96 | 8.06 | 6.38 | 7700 | 7.61 | 6.37 | < 5.00 |  |  |  |  | 
2 | COc1ccc2c(c1)[nH]c1c(C)nccc12 [HARMINE] | 6.99 |  | 5.05 | 5.50 |  | 56500 | 5.94 | 5.08 | 5.54 |  |  |  |  | 
3 | c1cc(OCCN2CCCCC2)cc(-c2n[nH]c3ccc(-c4nc[nH]n4)cc23)c1 [CC-401] | 6.81 | 5.82 | < 5.00 | 5.10 | < 5.00 | 51700 | 6.39 | < 5.00 | 5.37 | 8.22 | 6.36 | 5.54 |  | 
4 | COc1ccc2nc3c(CO)cc(OC)cc3c(SC[C@H]3CCNC3)c2c1 | 6.27 | < 5.00 | 5.19 |  | < 5.00 | 14700 | 5.37 | 5.71 |  |  | 5.90 |  | < 5.00 | 
5 | CC(C)Oc1ccc(F)c(-c2cnc(N)c(C(=O)Nc3cnccc3N3CCC[C@@H](C(=O)O)C3)n2)c1 | 7.68 | 6.20 | 5.61 | 5.80 | 6.33 | 16300 | 8.23 | 5.13 | 5.25 | 9.60 | 7.86 | 7.55 |  | 
6 | CN1CCN(c2cc(C(=O)Nc3cc4cc(-c5cnn(C)c5)ccc4cn3)ccn2)CC1 | 8.37 | 5.52 |  |  | 5.40 | 180 |  |  |  | 10.74 | 8.15 | 8.04 |  | 
7 | O=C(O)c1ccc2c(c1)nc(Nc1cccc(Cl)c1)c1ccncc12 [SILMITASERTIB] | 8.59 | < 5.00 | 7.11 | 7.00 | < 5.00 | 21300 |  | 5.82 | 7.51 |  |  |  |  | 
8 | COc1ccc(/C=C2\SC(=S)NC2=O)cc1C#C[Si](C)(C)C | < 5.00 | < 5.00 | 5.14 | < 5.00 | < 5.00 | 64800 | 5.08 | < 5.00 | < 5.00 |  | 5.08 |  | < 5.00 | 
9 | CNCc1ccc(-c2[nH]c3cc(F)cc4c3c2CCNC4=O)cc1 [RUCAPARIB] | < 5.00 | < 5.00 | < 5.00 | < 5.00 |  | 57000 | < 5.00 | < 5.00 | 5.10 |  | < 5.00 |  |  | 
10 | Cn1cc(-c2ccc3cnc(NC(=O)C4CCN(S(C)(=O)=O)CC4)cc3c2)cn1 | 7.85 | < 5.00 | 6.17 | 7.43 | 5.75 | 5900 | 7.05 | 6.21 | 6.68 | 9.21 | 7.42 | 7.69 |  | 

The remaining lines, values ahead:

Row | pIC50 [1] | pIC50 [2] | pIC50 [3] | pIC50 [4] | pIC50 [5] | IC50 at 48 h [6] [nM] | pIC50 [7] | pIC50 [8] | pIC50 [9] | pKd [10] | pIC50 [11] | pIC50 [12] | pIC50 [13] | pKd [14] | Structure (SMILES)
11 | 7.05 | < 5.00 | 5.13 |  |  | 12200 | 6.73 | 5.45 | 7.69 | 9.07 | 7.19 | 7.09 |  |  | CCN1CCN(Cc2ccc(Nc3ncc(F)c(-c4cc(F)c5nc(C)n(C(C)C)c5c4)n3)nc2)CC1 [ABEMACICLIB]
12 | 6.91 | < 5.00 | < 5.00 | 6.36 | < 5.00 | > 100000 | 7.09 | < 5.00 | 5.26 | 6.70 | 7.05 | 6.30 |  |  | O=C(Nc1ccc2[nH]ncc2c1)c1csc(Nc2ccccc2)n1
13 |  | < 5.00 | 6.09 |  | 6.61 | 6300 |  | 6.93 |  |  |  |  | 5.38 | 5.75 | O=C1NC(NC23CC4CC(CC(C4)C2)C3)=N/C1=C\c1ccc2ncsc2c1
14 |  |  |  |  |  | 5600 | 5.04 |  |  |  |  |  |  |  | [H]/N=C(\N/C(=N/[H])NCCCCCCNC(=N)NC(=N)Nc1ccc(Cl)cc1)Nc1ccc(Cl)cc1 [CHLORHEXIDINE]
15 | 6.34 | < 5.00 | 5.13 |  | < 5.00 | 14500 | 5.57 | 6.23 |  |  |  |  | < 5.00 | 5.57 | COc1ccc2nc3ccc(OC)cc3c(SCCCN)c2c1
16 | 7.62 | < 5.00 | 5.67 | 6.67 | 5.99 | 4900 | 6.42 | 5.61 | 6.17 | 9.01 | 7.08 | 7.82 |  |  | CC(C)CN1CCC(C(=O)Nc2cc3cc(-c4cnn(C)c4)ccc3cn2)CC1
17 |  | < 5.00 |  |  | < 5.00 | > 100000 |  |  | < 5.00 |  |  |  |  |  | COc1ccc(-n2c(C)c([N+](=O)[O-])c3ccc(O)cc32)cc1
18 | 6.47 | < 5.00 | < 5.00 | 5.84 | < 5.00 | 100000 | 5.36 | < 5.00 | < 5.00 |  | 6.24 | 6.41 | < 5.00 |  | COc1ccc2sc(-c3cncc(NC(C)=O)c3)nc2c1
19 | 7.67 | < 5.00 | 5.66 |  |  | > 100000 |  | 6.09 |  |  |  |  | < 5.00 | 6.25 | O=C1NC(Nc2ccccc2)=N/C1=C\c1ccc2c(c1)OCO2
20 |  | < 5.00 |  |  | < 5.00 | 100000 |  | < 5.00 | < 5.00 |  |  |  | < 5.00 | < 5.00 | Cc1ccc(-n2cc(COc3cccc4cnc(Nc5cccc(Cl)c5)nc34)nn2)c([N+](=O)[O-])c1
21 |  | 5.08 | 5.72 | 5.33 |  | 54000 | 7.08 | < 5.00 | 5.37 | 7.99 | 7.12 | 7.25 |  |  | c1ccc(CNc2nc(Nc3cc(C4CC4)[nH]n3)c3sccc3n2)cc1

Source: ChEMBL document CHEMBL5247649, “Comparative Efficacy and Selectivity of Pharmacological Inhibitors of DYRK and CLK Protein Kinases” (J Med Chem, 2023)
